Assay results published in patent US20130023555A1, “KINASE INHIBITOR WITH IMPROVED SOLUBILITY PROFILE” (Abbott Laboratories, priority 2011, published 2013).
In brackets after ≈: the same amount, converted by molar mass.

Tests used:
CSF1R = target: T1, CSF1R (Homo sapiens, UniProt P07333); test: HTRF in vitro kinase assay, CSF1R; type: biochemical; details: 1 mM ATP
T1 construct: CSF-1R Q547- C972; M-His(6) (N)
T1 sequence (P07333 547-972): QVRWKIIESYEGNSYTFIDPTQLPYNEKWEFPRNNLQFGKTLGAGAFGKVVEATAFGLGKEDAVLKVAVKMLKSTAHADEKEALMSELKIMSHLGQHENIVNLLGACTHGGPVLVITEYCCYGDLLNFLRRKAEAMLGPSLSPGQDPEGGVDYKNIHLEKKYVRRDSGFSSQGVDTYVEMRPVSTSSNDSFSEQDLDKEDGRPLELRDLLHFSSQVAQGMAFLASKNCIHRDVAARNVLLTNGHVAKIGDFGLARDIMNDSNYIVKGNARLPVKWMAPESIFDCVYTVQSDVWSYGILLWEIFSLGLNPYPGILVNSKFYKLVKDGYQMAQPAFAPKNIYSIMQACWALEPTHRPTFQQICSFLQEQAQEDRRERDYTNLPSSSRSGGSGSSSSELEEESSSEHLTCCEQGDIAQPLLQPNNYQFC
Protocol: (§1) To determine the activity of the various kinases, a homogenous time-resolved fluorescence (HTRF) in vitro kinase assay was used. (Mathis, G., HTRF(R) Technology. J Biomol Screen, 1999. 4(6): p. 309-314; Alfred J. Kolb, Paul V. Kaplita, David J. Hayes, Young-Whan Park, Christine Pernell, John S. Major and Gerard Mathis, Drug Discovery Today, 1998, 3, 333-342.)
(§2) For example for KDR, cKIT, FLT1, CSF1R and FTL3, purified enzyme was mixed with 0.5 μM N-biotinylated substrate (Biotin-Ahx-[…]-amide (SEQ. ID. 1)), various concentrations of inhibitor in reaction buffer (50 mM HEPES, pH 7.1, 10 mM MgCl2, 2 mM MnCl2, 0.1% BSA and 1 mM DTT, 40 μL final volume), ATP (1 mM final conc.) in a black 384-well plate. […] The quenched reaction was allowed to stand at room temperature for 3 hours and was then read in a time-resolved fluorescence detector (InVision, Perkin-Elmer) at 620 nm and 665 nm sequentially with excitation. The ratio between the signal of 620 nm and 665 nm was used in the calculation of the IC50.

[1] = Determination of Thermodynamic Solubility; type: physicochemical; details: PEG 300, 25 °C, organic solvent or mixture, thermodynamic from solid, PEG 300, Example 2 at 25° C., Example 1 at ambient temperature, read-out: Solubility (PEG300)
Protocol: Aqueous pH 7.4 and PEG 300 samples were tested at 25° C. Excess amount of the bulk drug was weighed out and mixed with an aliquot of target media in a clear glass vial (n=3/solvent). The vial was capped, wrapped with aluminum foil, and tumbled in a 25° C. water bath. When equilibration was completed, the samples were removed from the water bath and the final pH was measured, if applicable. The samples were centrifuged at 25° C. at 3000 rpm for 20 minutes. The supernatant was filtered through 4 mm 0.45 μm PTFE syringe filters. The filtrate was assayed after appropriate dilution (no dilution required for aqueous samples). The concentration of the sample was calculated against a calibration curve for the compound.
Solubility in pH 7.4 buffer was carried out as described above, except samples were not centrifuged before filtration. All other experimental steps were the same. PEG 300 and PEG 400 solubility were done at ambient temperature. Excess amount of the bulk drug was weighed out and mixed with an aliquot of target media in a clear glass vial with a small stir bar (n=3). The vials were placed on the stirrer at ˜500 rpm and allowed to equilibrate over the weekend. Samples were filtered through 13 mm 0.45 μm GHP syringe filters. The filtrate was assayed after appropriate dilutions, and concentrations determined against a calibration curve for the compound.

Aurora B = target: T2, Aurora B (Homo sapiens, UniProt Q96GD4); test: Aurora B enzyme assay (time-resolved fluorescence); type: biochemical; details: 1 mM ATP, with INCENP
T2 construct: Active Aurora B enzyme (recombinant residues 1-344)
Protocol: After 1 hour, the reaction was stopped with EDTA and anti-phospho-histone H3 Europium Cryptate (Cis-Bio) and SA-APC (Phycolink, Prozyme) were added to detect the phosphopeptide. The amount of phosphorylation was determined by the time-resolved fluorescence ratio of signals at 665 nm and 615 nm. The IC50's were calculated by an exponential fit of the inhibition values with the inhibitor concentrations using Assay Explorer software.

FLT3 = target: T3, FLT3 (Homo sapiens, UniProt P36888); test: HTRF in vitro kinase assay, FLT3; type: biochemical; details: 1 mM ATP
T3 construct: FLT3 Q569- S993; M-His(6) (N)
T3 sequence (P36888 569-993): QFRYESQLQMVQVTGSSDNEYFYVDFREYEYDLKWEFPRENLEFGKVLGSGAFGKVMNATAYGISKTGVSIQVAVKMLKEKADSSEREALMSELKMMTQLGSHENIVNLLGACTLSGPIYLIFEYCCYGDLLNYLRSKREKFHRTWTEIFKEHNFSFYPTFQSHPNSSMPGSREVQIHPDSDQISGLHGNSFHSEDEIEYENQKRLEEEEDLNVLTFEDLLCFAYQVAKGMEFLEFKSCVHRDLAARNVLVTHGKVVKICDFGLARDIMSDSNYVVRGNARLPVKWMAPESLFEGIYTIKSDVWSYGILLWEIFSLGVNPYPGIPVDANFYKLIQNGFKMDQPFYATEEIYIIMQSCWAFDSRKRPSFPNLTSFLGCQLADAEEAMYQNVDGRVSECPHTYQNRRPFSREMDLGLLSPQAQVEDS
Protocol: as §1, §2

T2 sequence (Q96GD4 whole entry, the tested form may be a part): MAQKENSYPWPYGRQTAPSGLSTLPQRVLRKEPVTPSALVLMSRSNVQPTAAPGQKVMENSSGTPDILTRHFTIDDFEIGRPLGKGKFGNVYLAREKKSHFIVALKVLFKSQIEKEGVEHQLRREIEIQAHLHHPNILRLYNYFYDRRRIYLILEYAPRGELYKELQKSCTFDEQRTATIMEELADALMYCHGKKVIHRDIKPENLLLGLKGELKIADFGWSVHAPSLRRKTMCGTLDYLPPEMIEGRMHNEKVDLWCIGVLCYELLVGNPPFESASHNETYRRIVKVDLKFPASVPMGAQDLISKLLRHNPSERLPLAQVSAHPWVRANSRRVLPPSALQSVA
T2 sequence (Q9NQS7 803-918 partner limits assumed): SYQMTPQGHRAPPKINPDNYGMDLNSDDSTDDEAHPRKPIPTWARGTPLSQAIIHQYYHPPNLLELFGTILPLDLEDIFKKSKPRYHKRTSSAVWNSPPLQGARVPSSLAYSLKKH

With CNC(=O)c1cnc(N)c2c(-c3ccc(NC(=O)Nc4cccc(C)c4)cc3)csc12 [Example 2, 4-amino-N-methyl-3-(4-{[(3-methylphenyl)carbamoyl]amino}phenyl)thieno[3,2-c]pyridine-7-carboxamide] the IC50 (CSF1R) was 3 nM, the solubility [1] was 8400 µg/mL (≈ 19.5 mM) and the IC50 (Aurora B) was 1.3 nM. For the same molecule, the IC50 (FLT3) was 2 nM.
